The results in this text go back to US20250197384A1, “AZOLE COMPOUND AND ANTIFUNGAL AGENT” (NIHON NOHYAKU CO., LTD., priority 2022, published 2025).

Assay [1] relates to Aspergillus fumigatus TIMM0063. Briefly: In vitro anti-Aspergillus activity test. Type of assay: cell-based. The settings on record: for A. fumigatus (MIC): 80% or more inhibition, unit inferred. Here is the method: Aspergillus fumigatus TIMM0063 was used as the strain. The test fungi were cultured on a Potato dextrose agar slant medium at 35° C. for 4 days, and then sterilized saline containing 0.1% (v/v) Tween 80 was added to release the conidia. This conidial suspension was filtered through sterile gauze, and the number of conidia was counted using a hemocytometer. The same solution was adjusted to a conidial concentration of 1×10^6 conidia/mL, and this was used as an inoculum. Each compound was dissolved in dimethyl sulfoxide to a predetermined concentration, and diluted 50-fold with 0.165 M MOPS buffered RPMI 1640 liquid medium, and each diluted solution was dispensed into a 96-well microplate by each 100 μL. The inoculum was diluted 50-fold with 0.165 M MOPS buffered RPMI 1640 liquid medium containing 20% alamar Blue™, and the diluted solution was inoculated into the 96-well microplate containing the compound by each 100 μL (final inoculum amount 1.0×10^4 conidia/mL). After static culture at 35° C. for 48 hr, the degree of color development of the alamar Blue™ was measured using a microplate reader (O.D. 570-595 nm), and the minimum concentration showing 80% or more inhibition was defined as the minimum inhibitory concentration (MIC).

For assay [2], the system named is Candida albicans NBRC1270. Briefly: In vitro anti-Candida activity test. The class given is cell-based. The conditions noted are these: for C. albicans (MIC): 80% or more inhibition, unit inferred. Here is the method:
Candida albicans NBRC1270 was used as the strain. The test fungi were cultured on a Sabouraud dextrose agar slant medium at 35° C. for 24 hr, and then suspended in sterilized saline. The number of cells in this suspension was counted using a hemocytometer, and the same suspension was adjusted to a cell concentration of 1.5×10^5 cells/mL, and this was used as an inoculum. Each compound was dissolved in dimethyl sulfoxide to a predetermined concentration, and diluted 50-fold with 0.165 M MOPS buffered RPMI 1640 liquid medium, and each diluted solution was dispensed into a 96-well microplate by each 100 μL. The inoculum was diluted 50-fold with 0.165 M MOPS buffered RPMI 1640 liquid medium containing 20% alamar Blue™, and the diluted solution was inoculated into the 96-well microplate containing the compound by each 100 μL (final inoculum amount 1.5×10^3 cells/mL). After static culture at 35° C. for 24 hr, the degree of color development of the alamar Blue™ was measured using a microplate reader (O.D. 570-595 nm), and the minimum concentration showing 80% or more inhibition was defined as the minimum inhibitory concentration (MIC).

[3] abbreviates: Table 22, 35° C. for 48 hr, alamar Blue, minimum concentration showing 80% or more inhibition.
Setting [4] is: Table 22, 35° C. for 24 hr, alamar Blue, minimum concentration showing 80% or more inhibition.

≈ marks a conversion by molar mass, not a printed value.

In assay [1] (Table 24, 35° C. for 48 hr), `CC(C)ON=Cc1cnc(C2CSC(=C(C#N)n3cncn3)S2)c(Cl)c1` (racemic) [compound 142] registered an A. fumigatus (MIC) of 10 ng/mL. For the same compound, the C. albicans (MIC) in assay [2] (Table 24, 35° C. for 24 hr) worked out at 2.5 ng/mL.

`CC(C)CON=Cc1cnc(C2CSC(=C(C#N)n3cncn3)S2)c(Cl)c1` (racemic) [compound 143]: the A. fumigatus (MIC) in assay [1] (Table 24, 35° C. for 48 hr) came out at 5 ng/mL. Moreover, the C. albicans (MIC) in assay [2] (Table 24, 35° C. for 24 hr) was found to be 2.5 ng/mL.

Turning to `CCCON=Cc1cnc(C2CSC(=C(C#N)n3cncn3)S2)c(F)c1` (racemic) [compound 144], in assay [1] (Table 24, 35° C. for 48 hr), the A. fumigatus (MIC) amounted to 5 ng/mL. Also, the C. albicans (MIC) in assay [2] (Table 24, 35° C. for 24 hr) turned out to be 10 ng/mL.

Compound `N#C/C(=C1/SCC(c2ncc(NC(=O)OCC3(F)CC3)cc2Cl)S1)n1cncn1` (racemic) [compound 150] returned an A. fumigatus (MIC) in assay [1] (Table 25, 35° C. for 48 hr) of 10 ng/mL. For the same compound, the C. albicans (MIC) in assay [2] (Table 25, 35° C. for 24 hr) amounted to 5 ng/mL.

`N#C/C(=C1/SCC(c2ncc(NC(=O)OCC3CC3(Cl)Cl)cc2Cl)S1)n1cncn1` (racemic) [compound 151] had an A. fumigatus (MIC) in assay [1] (Table 25, 35° C. for 48 hr) of 10 ng/mL. Moreover, the C. albicans (MIC) in assay [2] (Table 25, 35° C. for 24 hr) came out at 2.5 ng/mL.

For the compound `CCOC(=O)Nc1cnc([C@@H]2CS/C(=C(/C#N)n3cncn3)S2)c(F)c1` [Compound No. 8, ethyl (R,E)-(6-{2-[cyano(1H-1,2,4-triazol-1-yl)methylene]-1,3-dithiolan-4-yl}-5-fluoropyridin-3-yl)carbamate], the MIC in assay [1] (Aspergillus fumigatus, Table 22, 35° C. for 48 hr, alamar Blue, minimum concentration showing 80% or more inhibition, read-out: minimum inhibitory concentration against various fungi (MIC) A. fumigatus) turned out to be 5 ng/mL (≈ 0.0127 µM); in assay [2] (Candida albicans, Table 22, 35° C. for 24 hr, alamar Blue, minimum concentration showing 80% or more inhibition, read-out: minimum inhibitory concentration against various fungi (MIC) C. albicans), 25 ng/mL (≈ 0.0637 µM).

Consider `CC1(C)OCC(c2cnc(C3CS/C(=C(/C#N)n4ccnc4)S3)c(Cl)c2)O1` (stereo not drawn) [compound 5], for which the “minimum inhibitory concentration against various fungi (MIC) A. fumigatus” value in assay [1] (setting [3]) is 10 ng/mL (≈ 0.0238 µM). For the same compound, in assay [2] (setting [4]), the “minimum inhibitory concentration against various fungi (MIC) C. albicans” value worked out at 5 ng/mL (≈ 0.0119 µM).

With `COC(=O)Nc1cnc([C@@H]2CS/C(=C(/C#N)n3cncn3)S2)c(Cl)c1` [compound 9], the “minimum inhibitory concentration against various fungi (MIC) A. fumigatus” value in assay [1] (setting [3]) was 5 ng/mL (≈ 0.0127 µM). The “minimum inhibitory concentration against various fungi (MIC) C. albicans” value in assay [2] (setting [4]) stood at 13 ng/mL (≈ 0.0329 µM).

In the case of `N#C/C(=C1/SCC(c2ncc(NC(=O)OCc3ccccc3)cc2F)S1)n1cncn1` (stereo not drawn) [compound 13], the “minimum inhibitory concentration against various fungi (MIC) A. fumigatus” value in assay [1] (setting [3]) was 5 ng/mL (≈ 0.011 µM). For the same compound, in assay [2] (setting [4]), the “minimum inhibitory concentration against various fungi (MIC) C. albicans” value is 2.5 ng/mL (≈ 0.0055 µM).

On to `N#C/C(=C1/SCC(c2ncc(NC(=O)OCc3ccccc3)cc2Cl)S1)n1cncn1` (stereo not drawn) [compound 14], for which, in assay [1] (setting [3]), the “minimum inhibitory concentration against various fungi (MIC) A. fumigatus” value was 5 ng/mL (≈ 0.0106 µM). In addition, the “minimum inhibitory concentration against various fungi (MIC) C. albicans” value in assay [2] (setting [4]) stood at 1.3 ng/mL (≈ 0.00276 µM).

For the compound `N#C/C(=C1/SCC(c2ncc(NC(=O)OCc3ccccc3)cc2Cl)S1)n1ccnc1` (stereo not drawn) [compound 17], the “minimum inhibitory concentration against various fungi (MIC) A. fumigatus” value in assay [1] (setting [3]) is 5 ng/mL (≈ 0.0106 µM). In addition, in assay [2] (setting [4]), the “minimum inhibitory concentration against various fungi (MIC) C. albicans” value amounted to 1.3 ng/mL (≈ 0.00277 µM).

As for `CO/N=C/c1cnc(C2CS/C(=C(/C#N)n3cncn3)S2)c(F)c1` (stereo not drawn) [compound 18], in assay [1] (setting [3]), the “minimum inhibitory concentration against various fungi (MIC) A. fumigatus” value amounted to 10 ng/mL (≈ 0.0276 µM). Also, the “minimum inhibitory concentration against various fungi (MIC) C. albicans” value in assay [2] (setting [4]) came out at 50 ng/mL (≈ 0.138 µM).

In the case of `CCO/N=C/c1cnc(C2CS/C(=C(/C#N)n3cncn3)S2)c(F)c1` (stereo not drawn) [compound 20], in assay [1] (setting [3]), the “minimum inhibitory concentration against various fungi (MIC) A. fumigatus” value was 10 ng/mL (≈ 0.0266 µM). Moreover, the “minimum inhibitory concentration against various fungi (MIC) C. albicans” value in assay [2] (setting [4]) was determined as 13 ng/mL (≈ 0.0345 µM).

Regarding `N#C/C(=C1/SCC(c2ncc(/C=N/OCc3ccccc3)cc2F)S1)n1cncn1` (stereo not drawn) [compound 22], the “minimum inhibitory concentration against various fungi (MIC) A. fumigatus” value in assay [1] (setting [3]) stood at 5 ng/mL (≈ 0.0114 µM). Besides, the “minimum inhibitory concentration against various fungi (MIC) C. albicans” value in assay [2] (setting [4]) turned out to be 0.6 ng/mL (≈ 0.00137 µM).

With `N#C/C(=C1/SCC(c2ncc(/C=N/OCc3ccccc3)cc2Cl)S1)n1ccnc1` (stereo not drawn) [compound 26], the “minimum inhibitory concentration against various fungi (MIC) A. fumigatus” value in assay [1] (setting [3]) amounted to 5 ng/mL (≈ 0.011 µM). For the same compound, the “minimum inhibitory concentration against various fungi (MIC) C. albicans” value in assay [2] (setting [4]) was determined as 1.3 ng/mL (≈ 0.00286 µM).

With `N#C/C(=C1/SCC(c2ncc(COC3CCCCO3)cc2Cl)S1)n1ccnc1` (stereo not drawn) [compound 28, (E)-2-[4-(3-chloro-5-{[(tetrahydro-2H-pyran-2-yl)oxy]methyl}pyridin-2-yl)-1,3-dithiolan-2-ylidene]-2-(1H-imidazol-1-yl)acetonitrile], the A. fumigatus (MIC) in assay [1] (Table 23, 35° C. for 48 hr) amounted to 10 ng/mL. Further, in assay [2] (Table 23, 35° C. for 24 hr), the C. albicans (MIC) is 10 ng/mL.

In assay [1] (Table 23, 35° C. for 48 hr), `N#C/C(=C1/SCC(c2ncc(NC(=O)OCCCl)cc2Cl)S1)n1ccnc1` (stereo not drawn) [compound 66] had an A. fumigatus (MIC) of 10 ng/mL. This compound showed a C. albicans (MIC) in assay [2] (Table 23, 35° C. for 24 hr) of 5 ng/mL.

As to `N#C/C(=C1/SCC(c2ncc(NC(=O)OCCCCl)cc2Cl)S1)n1ccnc1` (stereo not drawn) [compound 67], the A. fumigatus (MIC) in assay [1] (Table 23, 35° C. for 48 hr) came to 10 ng/mL. The C. albicans (MIC) in assay [2] (Table 23, 35° C. for 24 hr) was found to be 2.5 ng/mL.
